Source: patent US8192962B2, “Processes for detecting toxic substances” (Daikin Industries, Ltd., priority 2001, dated 2012)

Tested on: Metabolism protein genes
Assay: DNA chip mRNA expression in yeast, metabolism protein genes (Table 7)
Format: cell-based, Saccharomyces cerevisiae S288C
How it was run: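 Chemical exposure: 2 h, log-phase S. cerevisiae S288C, YPD, 25° C., dose set to inhibit growth without death. Profiling: mRNA labeled by reverse transcription with Cy3- or Cy5-dUTP, hybridized to whole-genome array. Output: fluorescence ratio against untreated culture.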

CCCCCCCCCCCCOS(=O)(=O)[O-].[Na+] [(18), sodium lauryl sulfate]
The level of expressed mRNA in the presence of chemical substance/The level of expressed mRNA in the absence of chemical substance (yeast gene YAL012W): 0.8 | The level of expressed mRNA in the presence of chemical substance/The level of expressed mRNA in the absence of chemical substance (yeast gene YAL038W): 1.0 | level of expressed mRNA in the presence/in the absence of chemical substance (yeast gene YBR003W): 1.3 | level of expressed mRNA in the presence/in the absence of chemical substance (yeast gene YBR011C): 1.1 | level of expressed mRNA in the presence/in the absence of chemical substance (yeast gene YBR020W): 0.9 | The level of expressed mRNA in the presence of chemical substance/The level of expressed mRNA in the absence of chemical substance (yeast gene YBR023C): 0.9 | The level of expressed mRNA in the presence of chemical substance/The level of expressed mRNA in the absence of chemical substance (yeast gene YBR029C): 0.8 | The level of expressed mRNA in the presence of chemical substance/The level of expressed mRNA in the absence of chemical substance (yeast gene YBR183W): 2.4 | The level of expressed mRNA in the presence of chemical substance/The level of expressed mRNA in the absence of chemical substance (yeast gene YBR222C): 0.9 | The level of expressed mRNA in the presence of chemical substance/The level of expressed mRNA in the absence of chemical substance (yeast gene YBR256C): 3.3 | The level of expressed mRNA in the presence of chemical substance/The level of expressed mRNA in the absence of chemical substance (yeast gene YCL009C): 0.8 | The level of expressed mRNA in the presence of chemical substance/The level of expressed mRNA in the absence of chemical substance (yeast gene YCL064C): 0.3 | level of expressed mRNA in the presence/in the absence of chemical substance (yeast gene YCR010C): 1.5 | level of expressed mRNA in the presence/in the absence of chemical substance (yeast gene YCR034W): 0.7 | The level of expressed mRNA in the presence of chemical substance/The level of expressed mRNA in the absence of chemical substance (yeast gene YCR048W): 0.8 | The level of expressed mRNA in the presence of chemical substance/The level of expressed mRNA in the absence of chemical substance (yeast gene YCR098C): 1.6 | The level of expressed mRNA in the presence of chemical substance/The level of expressed mRNA in the absence of chemical substance (yeast gene YDL174C): 4.0 | The level of expressed mRNA in the presence of chemical substance/The level of expressed mRNA in the absence of chemical substance (yeast gene YDR019C): 1.6 | level of expressed mRNA in the presence/in the absence of chemical substance (yeast gene YDR050C): 2.3 | level of expressed mRNA in the presence/in the absence of chemical substance (yeast gene YDR073W): 2.3 | level of expressed mRNA in the presence/in the absence of chemical substance (yeast gene YDR123C): 1.0 | level of expressed mRNA in the presence/in the absence of chemical substance (yeast gene YDR178W): 2.3 | level of expressed mRNA in the presence/in the absence of chemical substance (yeast gene YDR277C): 1.7 | level of expressed mRNA in the presence/in the absence of chemical substance (yeast gene YDR284C): 1.5 | level of expressed mRNA in the presence/in the absence of chemical substance (yeast gene YDR345C): 1.8 | The level of expressed mRNA in the presence of chemical substance/The level of expressed mRNA in the absence of chemical substance (yeast gene YDR380W): 0.8 | level of expressed mRNA in the presence/in the absence of chemical substance (yeast gene YDR400W): 0.8 | level of expressed mRNA in the presence/in the absence of chemical substance (yeast gene YDR408C): 1.1 | level of expressed mRNA in the presence/in the absence of chemical substance (yeast gene YDR483W): 1.4 | The level of expressed mRNA in the presence of chemical substance/The level of expressed mRNA in the absence of chemical substance (yeast gene YDR497C): 1.8 | The level of expressed mRNA in the presence of chemical substance/The level of expressed mRNA in the absence of chemical substance (yeast gene YDR502C): 0.9 | The level of expressed mRNA in the presence of chemical substance/The level of expressed mRNA in the absence of chemical substance (yeast gene YDR516C): 1.2 | level of expressed mRNA in the presence/in the absence of chemical substance (yeast gene YEL063C): 0.7 | level of expressed mRNA in the presence/in the absence of chemical substance (yeast gene YER015W): 2.6 | The level of expressed mRNA in the presence of chemical substance/The level of expressed mRNA in the absence of chemical substance (yeast gene YER026C): 3.2 | The level of expressed mRNA in the presence of chemical substance/The level of expressed mRNA in the absence of chemical substance (yeast gene YER053C): 2.3 | The level of expressed mRNA in the presence of chemical substance/The level of expressed mRNA in the absence of chemical substance (yeast gene YER069W): 0.9 | level of expressed mRNA in the presence/in the absence of chemical substance (yeast gene YER081W): 1.7 | The level of expressed mRNA in the presence of chemical substance/The level of expressed mRNA in the absence of chemical substance (yeast gene YER096W): 1.2 | level of expressed mRNA in the presence/in the absence of chemical substance (yeast gene YER120W): 1.0 | The level of expressed mRNA in the presence of chemical substance/The level of expressed mRNA in the absence of chemical substance (yeast gene YER178W): 0.9 | level of expressed mRNA in the presence/in the absence of chemical substance (yeast gene YFL011W): 1.0 | The level of expressed mRNA in the presence of chemical substance/The level of expressed mRNA in the absence of chemical substance (yeast gene YFL014W): 8.8 | The level of expressed mRNA in the presence of chemical substance/The level of expressed mRNA in the absence of chemical substance (yeast gene YFL030W): 0.8 | The level of expressed mRNA in the presence of chemical substance/The level of expressed mRNA in the absence of chemical substance (yeast gene YFL031W): 1.1 | The level of expressed mRNA in the presence of chemical substance/The level of expressed mRNA in the absence of chemical substance (yeast gene YFL056C): 1.1 | The level of expressed mRNA in the presence of chemical substance/The level of expressed mRNA in the absence of chemical substance (yeast gene YFL057C): 1.3 | The level of expressed mRNA in the presence of chemical substance/The level of expressed mRNA in the absence of chemical substance (yeast gene YFR047C): 1.6 | level of expressed mRNA in the presence/in the absence of chemical substance (yeast gene YGL012W): 1.1 | The level of expressed mRNA in the presence of chemical substance/The level of expressed mRNA in the absence of chemical substance (yeast gene YGL022W): 0.7 | level of expressed mRNA in the presence/in the absence of chemical substance (yeast gene YGL115W): 1.2 | The level of expressed mRNA in the presence of chemical substance/The level of expressed mRNA in the absence of chemical substance (yeast gene YGL126W): 0.9 | level of expressed mRNA in the presence/in the absence of chemical substance (yeast gene YGL205W): 9.1 | The level of expressed mRNA in the presence of chemical substance/The level of expressed mRNA in the absence of chemical substance (yeast gene YGL209W): 1.5 | The level of expressed mRNA in the presence of chemical substance/The level of expressed mRNA in the absence of chemical substance (yeast gene YGL248W): 1.2 | The level of expressed mRNA in the presence of chemical substance/The level of expressed mRNA in the absence of chemical substance (yeast gene YGR037C): 2.0 | The level of expressed mRNA in the presence of chemical substance/The level of expressed mRNA in the absence of chemical substance (yeast gene YGR055W): 0.7 | level of expressed mRNA in the presence/in the absence of chemical substance (yeast gene YGR096W): 1.0 | level of expressed mRNA in the presence/in the absence of chemical substance (yeast gene YGR191W): 0.8 | The level of expressed mRNA in the presence of chemical substance/The level of expressed mRNA in the absence of chemical substance (yeast gene YGR194C): 2.0 | level of expressed mRNA in the presence/in the absence of chemical substance (yeast gene YGR204W): 0.7 | The level of expressed mRNA in the presence of chemical substance/The level of expressed mRNA in the absence of chemical substance (yeast gene YGR256W): 0.8 | The level of expressed mRNA in the presence of chemical substance/The level of expressed mRNA in the absence of chemical substance (yeast gene YGR282C): 1.5 | level of expressed mRNA in the presence/in the absence of chemical substance (yeast gene YGR288W): 1.3 | level of expressed mRNA in the presence/in the absence of chemical substance (yeast gene YHR025W): 0.6 | The level of expressed mRNA in the presence of chemical substance/The level of expressed mRNA in the absence of chemical substance (yeast gene YHR111W): 1.2 | level of expressed mRNA in the presence/in the absence of chemical substance (yeast gene YHR123W): 1.0 | The level of expressed mRNA in the presence of chemical substance/The level of expressed mRNA in the absence of chemical substance (yeast gene YHR137W): 1.3 | The level of expressed mRNA in the presence of chemical substance/The level of expressed mRNA in the absence of chemical substance (yeast gene YHR174W): 1.2 | The level of expressed mRNA in the presence of chemical substance/The level of expressed mRNA in the absence of chemical substance (yeast gene YHR176W): 1.6 | level of expressed mRNA in the presence/in the absence of chemical substance (yeast gene YHR210C): 1.2 | level of expressed mRNA in the presence/in the absence of chemical substance (yeast gene YIL006W): 0.9 | The level of expressed mRNA in the presence of chemical substance/The level of expressed mRNA in the absence of chemical substance (yeast gene YIL045W): 1.8 | The level of expressed mRNA in the presence of chemical substance/The level of expressed mRNA in the absence of chemical substance (yeast gene YIL107C): 2.0 | The level of expressed mRNA in the presence of chemical substance/The level of expressed mRNA in the absence of chemical substance (yeast gene YIL154C): 1.0 | The level of expressed mRNA in the presence of chemical substance/The level of expressed mRNA in the absence of chemical substance (yeast gene YIL155C): 1.4 | The level of expressed mRNA in the presence of chemical substance/The level of expressed mRNA in the absence of chemical substance (yeast gene YIL167W): 0.8 | The level of expressed mRNA in the presence of chemical substance/The level of expressed mRNA in the absence of chemical substance (yeast gene YIR034C): 1.0 | The level of expressed mRNA in the presence of chemical substance/The level of expressed mRNA in the absence of chemical substance (yeast gene YIR036C): 1.3 | The level of expressed mRNA in the presence of chemical substance/The level of expressed mRNA in the absence of chemical substance (yeast gene YJL031C): 1.9 | The level of expressed mRNA in the presence of chemical substance/The level of expressed mRNA in the absence of chemical substance (yeast gene YJL068C): 1.5 | The level of expressed mRNA in the presence of chemical substance/The level of expressed mRNA in the absence of chemical substance (yeast gene YJL088W): 0.9 | The level of expressed mRNA in the presence of chemical substance/The level of expressed mRNA in the absence of chemical substance (yeast gene YJL099W): 1.6 | level of expressed mRNA in the presence/in the absence of chemical substance (yeast gene YJL121C): 1.0 | The level of expressed mRNA in the presence of chemical substance/The level of expressed mRNA in the absence of chemical substance (yeast gene YJL155C): 3.1 | level of expressed mRNA in the presence/in the absence of chemical substance (yeast gene YJL167W): 2.1 | The level of expressed mRNA in the presence of chemical substance/The level of expressed mRNA in the absence of chemical substance (yeast gene YJL172W): 1.8 | level of expressed mRNA in the presence/in the absence of chemical substance (yeast gene YJL216C): 2.0 | The level of expressed mRNA in the presence of chemical substance/The level of expressed mRNA in the absence of chemical substance (yeast gene YJL219W): 1.2 | level of expressed mRNA in the presence/in the absence of chemical substance (yeast gene YJR077C): 0.8 | The level of expressed mRNA in the presence of chemical substance/The level of expressed mRNA in the absence of chemical substance (yeast gene YJR137C): 0.8 | level of expressed mRNA in the presence/in the absence of chemical substance (yeast gene YJR143C): 0.8 | The level of expressed mRNA in the presence of chemical substance/The level of expressed mRNA in the absence of chemical substance (yeast gene YJR148W): 1.7 | The level of expressed mRNA in the presence of chemical substance/The level of expressed mRNA in the absence of chemical substance (yeast gene YJR155W): 1.4
